Measured values taken from patent EP0509845A1, “(+) and (-) enantiomers of 5-aliphatic-6-(benzoxazinyl- or benzothiazinyl)-2,3,4,5-tetrahydropyridazin-3-ones” (ORTHO PHARMACEUTICAL CORPORATION, priority 1991, dated 1992).
Like-named read-outs stand apart in the source and are kept apart here.

Key:
[1] = biological target: T1, canine cardiac cyclic nucleotide phosphodiesterase (PDE) fraction III (Canis lupus familiaris, UniProt A0A8I3NYE0); test: Cyclic AMP phosphodiesterase assay with fraction III isoenzyme, comparative testing; format: biochemical
T1 construct: The fraction III isoenzyme was pooled and dialyzed; from tissue; host or cells: canine heart, soluble supernatant, DEAE cellulose fraction III (800 mM sodium acetate eluate)
T1 sequence (A0A8I3NYE0 1-1135): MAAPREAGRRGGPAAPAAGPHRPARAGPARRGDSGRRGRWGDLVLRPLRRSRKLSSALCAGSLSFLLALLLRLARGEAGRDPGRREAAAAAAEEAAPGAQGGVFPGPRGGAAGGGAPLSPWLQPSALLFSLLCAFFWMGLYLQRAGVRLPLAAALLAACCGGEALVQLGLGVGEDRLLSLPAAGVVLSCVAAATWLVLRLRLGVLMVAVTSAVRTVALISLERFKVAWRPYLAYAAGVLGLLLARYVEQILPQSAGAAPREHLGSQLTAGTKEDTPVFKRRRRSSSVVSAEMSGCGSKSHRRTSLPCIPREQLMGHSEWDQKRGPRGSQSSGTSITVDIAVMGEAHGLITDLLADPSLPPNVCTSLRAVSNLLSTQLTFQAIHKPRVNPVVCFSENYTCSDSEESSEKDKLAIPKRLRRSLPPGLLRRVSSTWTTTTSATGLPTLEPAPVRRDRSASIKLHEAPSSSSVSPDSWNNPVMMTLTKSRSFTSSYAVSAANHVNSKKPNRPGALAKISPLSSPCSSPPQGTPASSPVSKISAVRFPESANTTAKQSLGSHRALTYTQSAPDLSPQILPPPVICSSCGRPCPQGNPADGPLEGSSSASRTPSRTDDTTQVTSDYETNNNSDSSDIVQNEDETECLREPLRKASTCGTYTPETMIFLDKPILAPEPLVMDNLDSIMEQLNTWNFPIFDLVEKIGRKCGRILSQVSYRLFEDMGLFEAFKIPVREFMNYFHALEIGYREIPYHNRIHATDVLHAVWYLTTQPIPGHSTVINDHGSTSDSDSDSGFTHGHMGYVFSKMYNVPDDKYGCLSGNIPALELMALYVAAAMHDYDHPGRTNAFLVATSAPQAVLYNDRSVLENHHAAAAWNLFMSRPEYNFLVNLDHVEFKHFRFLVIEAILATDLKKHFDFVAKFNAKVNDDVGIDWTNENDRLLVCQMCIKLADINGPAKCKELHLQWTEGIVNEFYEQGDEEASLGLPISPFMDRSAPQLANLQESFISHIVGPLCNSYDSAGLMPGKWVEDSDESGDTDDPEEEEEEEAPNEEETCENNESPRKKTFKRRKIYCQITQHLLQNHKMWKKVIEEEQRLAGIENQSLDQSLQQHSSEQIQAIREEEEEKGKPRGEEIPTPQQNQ

[2] = tested on: adult mongrel dogs; test: Comparative racemate and enantiomer hemodynamic testing in pentobarbital anesthetized open-chest dogs; format: in vivo; conditions: for CO Percent Change from Control: cardiac output; for CO Percent Change from Control / CF Percent Change from Control / HR Percent Change from Control / LVEDP Percent Change from Control / MAP Percent Change from Control / dP/dtmax Percent Change from Control / RAP Percent Change from Control / SV Percent Change from Control / SW Percent Change from Control / TPR Percent Change from Control: anesthetized open-chest dogs; for CF Percent Change from Control: contractile force; for HR Percent Change from Control: heart rate; for LVEDP Percent Change from Control: left ventricular end diastolic pressure; for MAP Percent Change from Control: mean blood pressure; for dP/dtmax Percent Change from Control: peak rate of rise in left ventricular pressure; for RAP Percent Change from Control: right atrial pressure; for SV Percent Change from Control: stroke volume (CO/HR x 1000); for SW Percent Change from Control: stroke work; for TPR Percent Change from Control: total peripheral resistance
Experimental: Adult mongrel dogs weighing approximately l0-l4 kg were anesthetized with sodium pentobarbital (35 mg/kg, i.p.) and artificially respired. A femoral artery was cannulated to measure mean arterial pressure (MAP) and a femoral vein was cannulated for administering compounds. A Millar microtip pressure transducer was placed in the left ventricle via the left carotid artery to measure left ventricular end diastolic pressure (EDP). pressure pulses triggered a cardiotachometer for determination of heart rate (HR) while the left ventricular pressure waveform was differentiated using a Gould differentiating amplifier to yield dP/dtmax, an index of contractility. A right thoractomy was performed at the fourth intercostal space and the pericardial sac was opened. An externally calibrated Walton-Brodie strain gauge arch was sutured to the right ventricular free wall and stretched to produce a baseline force of approximately l00g. Subsequent changes in right ventricular contractile force (CF) were measured from this baseline. A Carolina electromagnetic flow probe was placed on the ascending aorta to estimate cardiac output (CO). A flexible fluid-filled catheter was inserted into the tip of the right atrium to measure right atrial pressure (RAP). Needle electrodes were placed in the appropriate limbs to record a lead II electrocardiogram (ECG). The following formulas were used to calculate derived parameters: Stroke volume (SV) = CO/HR x l000 Stroke work (SW) = ([…]) x SV Total peripheral resistance (TPR) = (MAP-EDP)/CO
Following surgery and stabilization of hemodynamic parameters, an i.v. infusion of dopamine (l0-l5 µg/kg/min for 3 min) was administered with a Harvard infusion pump to assess responsiveness to positive inotropic stimulation. Baseline hemodynamic values were obtained immediately prior to drug infusion. Responses were continuously monitored on a recorder (Gould 2800) and data collection was facilitated by the use of a Buxco cardiovascular analyzer and data logger.
In the comparative testing a stock solution of each enantiomer (l mg/ml) was prepared fresh daily and diluted before use. Compounds were dissolved in a small volume of dimethylformamide (DMF) and diluted with saline for a final concentration of l5% DMF. Further dilutions were made with a l5% DMF solution.
In the comparative testing each compound was administered in cumulative doses to separate dogs. Data were obtained at the end of each dose. (±) Bemoradan and (+) Bemordan were infused at cumulative doses of 5, l5, 35 and 75 µg/kg, administered with a Harvard infusion pump for 5 minutes each at rates of 0.56, l.l, 2.2, and […], respectively. (-) Bemoradan was given at doses of 5, l5 and 35 µg/kg following the same protocol. The high dose of the (-) isomer was not administered as a means of conserving compound.
Hemodynamic results were expressed as the percent change from pre-drug baseline values and compared using a Dunnett's test with a criterion for significance of p < 0.05. Contractile force ED₄₀ values (i.e., the dose which increased contractile force by 40%) were calculated from dose-response regression lines.

SMILES: CC1CC(=O)NN=C1c1ccc2c(c1)OCC(=O)N2 (single isomer, unassigned; isomer 6) [(-) isomer, 6-(3,4-dihydro-3-oxo-l,4(2H)-benzoxazin-7-yl)-2,3,4,5-tetrahydro-5-methyl-pyridazin-3-one]
- Potency Difference (-vs+), PDE III inhibition (IC50) ([1]; (-) isomer versus (+) isomer): 44 x
- times more potent than the (+) isomer, inhibition of PDE III ([1]; (-) isomer versus (+) isomer): ~44 times
- times more potent than the racemate, inhibition of PDE III ([1]; (-) isomer versus racemate): approximately 4 times
- IC50 ([1]; Table I summary, canine cardiac PDE fraction III, read-out: PDE III inhibition (IC50)): 0.18 µM
- IC50 ([1]; canine heart fraction III, 0.1 µM cyclic AMP, read-out: PDE III IC50): 0.18 µM
- Potency Difference (-vs+), In vivo inotropic ED40, i.v. ([2]; (-) isomer versus (+) isomer): 7 x
- In vivo inotropic ED40, i.v. ([2]; Table I summary, dose increasing contractile force by 40%, dogs, i.v.): 5.7 µg/kg
- CO Percent Change from Control ([2]; cumulative i.v. dose 5 µg/kg): 2.9±0.5%
- CO Percent Change from Control ([2]; cumulative i.v. dose 15 µg/kg): 0.8±1.9%
- CO Percent Change from Control ([2]; cumulative i.v. dose 35 µg/kg): -3.4±2.4%
- CF Percent Change from Control ([2]; cumulative i.v. dose 5 µg/kg): 28.3±4.4%
- CF Percent Change from Control ([2]; cumulative i.v. dose 15 µg/kg): 119.9±18.8%
- CF Percent Change from Control ([2]; cumulative i.v. dose 35 µg/kg): 187.2±28.9%
- CF ED40 (µg/kg) with 95% F.L. ([2]; dose causing a 40% increase in contractility above baseline, from dose-response regression lines, i.v. infusion, dogs): 5.7 (2.9 - 8.3) µg/kg
- HR Percent Change from Control ([2]; cumulative i.v. dose 5 µg/kg): -3.1±0.5%
- HR Percent Change from Control ([2]; cumulative i.v. dose 15 µg/kg): 10.5±1.2%
- HR Percent Change from Control ([2]; cumulative i.v. dose 35 µg/kg): 17.1±3.6%
- LVEDP Percent Change from Control ([2]; cumulative i.v. dose 5 µg/kg): -10.6±4.4%
- LVEDP Percent Change from Control ([2]; cumulative i.v. dose 15 µg/kg): -20.7±5.1%
- LVEDP Percent Change from Control ([2]; cumulative i.v. dose 35 µg/kg): -25.1±8.0%
- MAP Percent Change from Control ([2]; cumulative i.v. dose 5 µg/kg): -7.4±3.4%
- MAP Percent Change from Control ([2]; cumulative i.v. dose 15 µg/kg): -12.8±4.5%
- MAP Percent Change from Control ([2]; cumulative i.v. dose 35 µg/kg): -18.7±4.3%
- dP/dtmax Percent Change from Control ([2]; cumulative i.v. dose 5 µg/kg): 11.7±5.6%
- dP/dtmax Percent Change from Control ([2]; cumulative i.v. dose 15 µg/kg): 41.6±12.3%
- dP/dtmax Percent Change from Control ([2]; cumulative i.v. dose 35 µg/kg): 58.0±14.5%
- RAP Percent Change from Control ([2]; cumulative i.v. dose 5 µg/kg): 3.8±11.4%
- RAP Percent Change from Control ([2]; cumulative i.v. dose 15 µg/kg): -0.9±16.4%
- RAP Percent Change from Control ([2]; cumulative i.v. dose 35 µg/kg): -1.4±16.0%
- SV Percent Change from Control ([2]; cumulative i.v. dose 5 µg/kg): 0.06±0.9%
- SV Percent Change from Control ([2]; cumulative i.v. dose 15 µg/kg): -8.4±1.8%
- SV Percent Change from Control ([2]; cumulative i.v. dose 35 µg/kg): -15.2±4.0%
- SW Percent Change from Control ([2]; cumulative i.v. dose 5 µg/kg): -7.8±4.2%
- SW Percent Change from Control ([2]; cumulative i.v. dose 15 µg/kg): -19.8±6.3%
- SW Percent Change from Control ([2]; cumulative i.v. dose 35 µg/kg): -29.7±7.7%
- TPR Percent Change from Control ([2]; cumulative i.v. dose 5 µg/kg): -10.2±5.2%
- TPR Percent Change from Control ([2]; cumulative i.v. dose 15 µg/kg): -12.8±7.5%
- TPR Percent Change from Control ([2]; cumulative i.v. dose 35 µg/kg): -14.9±5.1%
